Reference: paper PMC12418644, “Production, optimization and characterization of esterase isolated from a new endophytic Trichoderma afroharzianum strain AUMC 16,433 and its applications in dye decolorization” (Microbial Cell Factories, 2025)

Test system: T1, T. afroharzianum esterase (purified extracellular esterase)
T1 construct: 43 kDa by SDS-PAGE and gel filtration; monomeric
Experiment: p-nitrophenol release at […] nm, Lineweaver-Burk plot
Type: biochemical, Trichoderma afroharzianum
Settings: 50 mM Tris pH 8, 37 °C (standard assay), 1-10 mM substrate

Km: 3.33 mM
SMILES: CC(=O)Oc1ccc([N+](=O)[O-])cc1 [p-NPA, p-nitrophenyl acetate]
